{"source": "ChEMBL document CHEMBL1201862", "about": "“PubChem BioAssay data set” (2004)", "key": {"[1]": {"target": "Glyceraldehyde-3-phosphate dehydrogenase (Homo sapiens, UniProt P04406)", "sequence (P04406 whole entry)": "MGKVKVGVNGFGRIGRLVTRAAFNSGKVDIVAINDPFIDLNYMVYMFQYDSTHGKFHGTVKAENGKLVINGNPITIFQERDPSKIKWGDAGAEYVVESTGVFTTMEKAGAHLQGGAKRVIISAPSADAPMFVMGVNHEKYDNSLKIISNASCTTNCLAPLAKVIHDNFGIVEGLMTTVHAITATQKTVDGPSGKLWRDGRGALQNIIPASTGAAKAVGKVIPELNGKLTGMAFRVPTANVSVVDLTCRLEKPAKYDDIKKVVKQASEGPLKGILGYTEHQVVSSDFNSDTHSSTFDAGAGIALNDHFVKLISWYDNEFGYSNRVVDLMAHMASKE"}, "[2]": {"target": "Heat shock cognate 71 kDa protein (Homo sapiens, UniProt P11142)", "sequence (P11142 whole entry)": "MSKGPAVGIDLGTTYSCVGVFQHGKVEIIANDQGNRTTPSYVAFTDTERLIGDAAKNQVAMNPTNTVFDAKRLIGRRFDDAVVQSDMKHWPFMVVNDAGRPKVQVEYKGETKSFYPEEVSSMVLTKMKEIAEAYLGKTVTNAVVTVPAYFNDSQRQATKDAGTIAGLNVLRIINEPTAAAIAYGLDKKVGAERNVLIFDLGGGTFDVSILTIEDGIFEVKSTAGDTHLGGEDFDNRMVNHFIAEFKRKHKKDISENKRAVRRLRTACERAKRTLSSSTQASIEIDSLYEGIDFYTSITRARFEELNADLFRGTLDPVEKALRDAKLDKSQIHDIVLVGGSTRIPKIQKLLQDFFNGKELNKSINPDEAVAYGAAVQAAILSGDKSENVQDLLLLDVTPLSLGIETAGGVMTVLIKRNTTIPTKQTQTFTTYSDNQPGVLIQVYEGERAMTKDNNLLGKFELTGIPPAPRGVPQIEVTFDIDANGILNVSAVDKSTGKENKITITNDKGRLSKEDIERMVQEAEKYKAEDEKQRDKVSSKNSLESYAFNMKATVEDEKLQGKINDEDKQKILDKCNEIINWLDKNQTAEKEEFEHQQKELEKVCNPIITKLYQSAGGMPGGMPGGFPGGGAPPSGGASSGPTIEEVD", "test": "In Vitro Hsc70 Dose Response Fluorescence Polarization Assay. [Related pubchem assays: 1072 ]"}, "[3]": {"target": "Heat shock 70 kDa protein 1A (Homo sapiens, UniProt P0DMV8)", "test": "inhibition of Hsp70 binding activity – biochemical, fluorescence polarization, SAR follow-up (AID 1072)"}, "[4]": {"test": "viability of uninfected HEp-2 cells – cell-based, HTS, cytotoxicity control for RSV inhibitor project, dose response (AID 2410)", "type": "functional", "settings": "human respiratory syncytial virus"}, "[5]": {"target": "T1, Fatty acid synthase (Homo sapiens, UniProt P49327)", "T1 sequence (P49327 whole entry)": "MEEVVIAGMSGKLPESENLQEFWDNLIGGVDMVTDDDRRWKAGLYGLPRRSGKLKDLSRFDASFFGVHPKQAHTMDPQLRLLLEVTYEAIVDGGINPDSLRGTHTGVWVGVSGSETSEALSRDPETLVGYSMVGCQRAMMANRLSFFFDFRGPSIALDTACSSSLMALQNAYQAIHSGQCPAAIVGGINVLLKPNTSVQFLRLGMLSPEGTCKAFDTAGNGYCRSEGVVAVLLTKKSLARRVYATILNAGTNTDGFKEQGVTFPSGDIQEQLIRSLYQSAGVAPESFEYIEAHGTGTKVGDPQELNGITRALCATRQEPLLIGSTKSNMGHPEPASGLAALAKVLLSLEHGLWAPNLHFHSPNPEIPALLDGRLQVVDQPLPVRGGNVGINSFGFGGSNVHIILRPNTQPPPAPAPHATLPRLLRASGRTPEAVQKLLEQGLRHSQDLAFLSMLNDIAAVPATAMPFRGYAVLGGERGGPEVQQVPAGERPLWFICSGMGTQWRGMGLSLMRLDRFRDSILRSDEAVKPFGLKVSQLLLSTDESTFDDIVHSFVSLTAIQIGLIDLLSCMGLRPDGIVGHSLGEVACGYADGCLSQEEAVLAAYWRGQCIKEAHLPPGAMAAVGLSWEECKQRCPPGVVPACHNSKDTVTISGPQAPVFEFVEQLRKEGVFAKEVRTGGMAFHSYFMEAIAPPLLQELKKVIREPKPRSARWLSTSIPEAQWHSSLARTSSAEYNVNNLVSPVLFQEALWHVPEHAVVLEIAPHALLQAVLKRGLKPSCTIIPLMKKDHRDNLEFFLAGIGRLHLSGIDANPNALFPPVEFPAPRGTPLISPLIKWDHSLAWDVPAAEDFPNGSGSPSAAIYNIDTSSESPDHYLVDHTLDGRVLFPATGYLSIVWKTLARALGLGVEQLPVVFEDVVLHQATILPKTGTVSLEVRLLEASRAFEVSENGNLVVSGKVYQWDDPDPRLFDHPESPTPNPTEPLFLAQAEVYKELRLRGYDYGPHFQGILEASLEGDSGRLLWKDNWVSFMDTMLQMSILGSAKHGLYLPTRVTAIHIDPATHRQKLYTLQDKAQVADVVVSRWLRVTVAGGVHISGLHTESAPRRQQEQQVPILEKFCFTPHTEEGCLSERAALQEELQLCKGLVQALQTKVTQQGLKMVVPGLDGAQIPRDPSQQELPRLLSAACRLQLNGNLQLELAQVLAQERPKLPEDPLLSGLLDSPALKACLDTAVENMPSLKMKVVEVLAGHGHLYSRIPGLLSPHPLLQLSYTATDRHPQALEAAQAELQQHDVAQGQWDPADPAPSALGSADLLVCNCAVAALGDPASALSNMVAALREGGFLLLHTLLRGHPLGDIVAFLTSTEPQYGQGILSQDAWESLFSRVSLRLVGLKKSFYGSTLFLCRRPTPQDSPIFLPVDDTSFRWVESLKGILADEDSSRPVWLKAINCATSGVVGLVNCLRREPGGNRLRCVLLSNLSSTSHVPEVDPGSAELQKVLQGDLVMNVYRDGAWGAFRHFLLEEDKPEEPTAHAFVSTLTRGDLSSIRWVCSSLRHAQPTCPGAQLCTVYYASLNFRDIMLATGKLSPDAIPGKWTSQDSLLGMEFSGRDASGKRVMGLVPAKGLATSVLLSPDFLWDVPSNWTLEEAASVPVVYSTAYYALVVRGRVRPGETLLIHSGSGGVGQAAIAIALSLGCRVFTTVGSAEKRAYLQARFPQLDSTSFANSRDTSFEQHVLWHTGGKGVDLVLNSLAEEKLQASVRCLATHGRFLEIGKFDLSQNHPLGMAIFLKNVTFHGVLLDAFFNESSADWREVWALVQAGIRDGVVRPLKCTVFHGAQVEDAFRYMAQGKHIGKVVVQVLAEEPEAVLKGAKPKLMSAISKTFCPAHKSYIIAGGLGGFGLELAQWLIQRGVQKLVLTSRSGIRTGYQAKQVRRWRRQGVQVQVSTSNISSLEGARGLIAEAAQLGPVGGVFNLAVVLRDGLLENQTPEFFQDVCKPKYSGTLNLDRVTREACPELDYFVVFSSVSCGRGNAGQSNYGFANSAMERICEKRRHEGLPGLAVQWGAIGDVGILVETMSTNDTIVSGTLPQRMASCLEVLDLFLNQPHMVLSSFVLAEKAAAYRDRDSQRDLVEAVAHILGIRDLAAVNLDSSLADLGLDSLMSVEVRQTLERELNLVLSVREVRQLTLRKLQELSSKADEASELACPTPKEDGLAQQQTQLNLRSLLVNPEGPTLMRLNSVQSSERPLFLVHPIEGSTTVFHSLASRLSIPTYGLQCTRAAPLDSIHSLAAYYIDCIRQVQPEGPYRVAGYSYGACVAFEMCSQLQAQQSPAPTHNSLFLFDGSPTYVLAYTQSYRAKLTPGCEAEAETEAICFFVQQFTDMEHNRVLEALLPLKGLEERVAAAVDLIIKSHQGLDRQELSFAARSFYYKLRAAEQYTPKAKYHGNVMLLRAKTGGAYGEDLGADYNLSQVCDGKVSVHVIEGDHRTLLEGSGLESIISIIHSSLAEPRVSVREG", "test": "inhibition of human FAS-TE enzyme activity – biochemical, endpoint fluorescence intensity, uHTS hits, dose response (AID 624327);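 further: fluorescence from hydrolysis of an O-methyl fluorescein acyl ester substrate by the enzyme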", "type": "functional"}, "[6]": {"target": "T1, Fatty acid synthase", "test": "inhibition of human FAS-TE enzyme activity – biochemical, kinetic fluorescence intensity, dose response (AID 624326);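 further: rate of fluorescence rise from hydrolysis of a fluorogenic O-methyl fluorescein ester substrate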", "type": "functional"}, "[7]": {"target": "Cytochrome P450 2C9 (Homo sapiens, UniProt P11712)", "sequence (P11712 whole entry)": "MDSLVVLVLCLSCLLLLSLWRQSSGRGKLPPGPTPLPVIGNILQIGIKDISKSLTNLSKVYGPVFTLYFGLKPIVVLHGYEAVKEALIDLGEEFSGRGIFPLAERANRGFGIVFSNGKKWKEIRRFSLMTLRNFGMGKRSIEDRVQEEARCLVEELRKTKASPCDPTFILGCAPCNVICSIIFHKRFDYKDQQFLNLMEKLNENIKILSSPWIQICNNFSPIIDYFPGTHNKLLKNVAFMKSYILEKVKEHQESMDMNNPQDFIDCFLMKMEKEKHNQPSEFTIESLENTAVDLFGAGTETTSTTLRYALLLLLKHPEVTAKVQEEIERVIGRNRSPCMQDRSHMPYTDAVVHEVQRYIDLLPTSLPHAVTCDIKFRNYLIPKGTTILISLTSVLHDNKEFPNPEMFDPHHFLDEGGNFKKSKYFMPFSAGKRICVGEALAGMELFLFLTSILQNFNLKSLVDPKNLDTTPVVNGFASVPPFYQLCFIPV"}, "[8]": {"test": "cells"}, "[9]": {"test_system": "Vero", "test": "cells", "type": "functional, cell-based", "settings": "Chlorocebus sabaeus"}, "[10]": {"test": "Luminescence Cell-Based Dose Confirmation HTS to Identify Activators of 5'UTR Stem-Loop Driven Alpha-Synuclein mRNA Translation in H4 Neuroglioblastoma Cells. [Related pubchem assays: 1829 (Project Summary), 1814 (Primary HTS)]", "type": "functional"}, "[11]": {"test": "Luminescence Cell-Based Dose Response HTS to Identify Activators of Luciferase Translation or Activity in H4 […] Cells. [Related pubchem assays: 1829 (Project Summary), 1814 (Primary HTS)]", "type": "functional"}, "[12]": {"target": "T2, Bcl-2-like protein 10 (Homo sapiens, UniProt Q9HD36)", "T2 sequence (Q9HD36 whole entry)": "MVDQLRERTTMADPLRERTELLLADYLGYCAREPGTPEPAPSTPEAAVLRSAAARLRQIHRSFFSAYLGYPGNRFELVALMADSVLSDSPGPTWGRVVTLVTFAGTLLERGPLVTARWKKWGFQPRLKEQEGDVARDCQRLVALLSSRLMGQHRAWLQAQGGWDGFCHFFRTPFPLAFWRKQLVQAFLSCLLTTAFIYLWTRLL", "test": "Bcl-B/TR3 peptide binding disruption – biochemical, fluorescence polarization, FITC-TR3 peptide, selectivity assay for Bfl-1 inhibitor project, primary screen (AID 748);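 further: fluorescence polarization from a fluorescein-labelled TR3 peptide binding purified Bcl-B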"}, "[13]": {"target": "Luciferin 4-monooxygenase (Photinus pyralis, UniProt P08659)", "sequence (P08659 whole entry)": "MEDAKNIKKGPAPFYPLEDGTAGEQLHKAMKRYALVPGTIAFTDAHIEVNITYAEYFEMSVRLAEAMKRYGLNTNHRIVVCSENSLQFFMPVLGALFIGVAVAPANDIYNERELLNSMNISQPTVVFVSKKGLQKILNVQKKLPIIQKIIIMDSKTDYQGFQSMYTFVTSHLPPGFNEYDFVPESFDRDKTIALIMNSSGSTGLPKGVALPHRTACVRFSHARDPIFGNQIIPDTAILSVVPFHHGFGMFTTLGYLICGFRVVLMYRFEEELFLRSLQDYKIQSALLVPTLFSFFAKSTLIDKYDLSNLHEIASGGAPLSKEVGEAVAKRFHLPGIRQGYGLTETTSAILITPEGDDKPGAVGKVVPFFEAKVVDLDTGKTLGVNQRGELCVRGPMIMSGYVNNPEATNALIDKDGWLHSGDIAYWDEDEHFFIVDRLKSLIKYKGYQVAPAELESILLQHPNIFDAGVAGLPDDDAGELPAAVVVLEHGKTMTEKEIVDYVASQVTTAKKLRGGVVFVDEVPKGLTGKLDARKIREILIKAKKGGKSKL", "test": "Counter Screen for Luciferase-based Assay Positives. [Related pubchem assays: 620, 618, 411 ]"}, "[14]": {"test_system": "H4", "test": "Luminescence Cell-Based Dose Response HTS to Identify Activators of 5'UTR Stem-Loop Driven Prion Protein mRNA Translation in H4 Neuroglioblastoma Cells. [Related pubchem assays: 1829 (Project Summary), 1814 (Primary HTS)]", "type": "functional", "settings": "Homo sapiens"}, "[15]": {"target": "Large T antigen (Simian virus 40, UniProt P03070)", "type": "functional, Betapolyomavirus macacae"}, "[16]": {"test": "Trypanosoma cruzi growth suppression in host cells – NIH3T3 host cells, beta-gal luminescence, confirmation (AID 2044);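 further: intracellular parasites grown in NIH/3T3 mouse fibroblasts as host cells; luminescent beta-galactosidase reporter signal from transgenic T. cruzi replicating inside host cells; inhibitors lower the luminescence signal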", "type": "functional, cell-based"}, "[17]": {"test_system": "HT-1080", "test": "HT1080 cell viability loss – fluorescence readout (AID 620)", "type": "functional, cell-based", "settings": "Homo sapiens"}, "[18]": {"test": "NIH3T3 cell viability loss – ATP luminescence, mouse fibroblasts, counter-screen, dose response (AID 2010);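 further: cells exposed to compound for about 90 hours before reading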", "type": "functional, cell-based"}, "[19]": {"target": "T3, Short transient receptor potential channel 4 (Mus musculus, UniProt Q9QUQ5)", "T3 sequence (Q9QUQ5 whole entry)": "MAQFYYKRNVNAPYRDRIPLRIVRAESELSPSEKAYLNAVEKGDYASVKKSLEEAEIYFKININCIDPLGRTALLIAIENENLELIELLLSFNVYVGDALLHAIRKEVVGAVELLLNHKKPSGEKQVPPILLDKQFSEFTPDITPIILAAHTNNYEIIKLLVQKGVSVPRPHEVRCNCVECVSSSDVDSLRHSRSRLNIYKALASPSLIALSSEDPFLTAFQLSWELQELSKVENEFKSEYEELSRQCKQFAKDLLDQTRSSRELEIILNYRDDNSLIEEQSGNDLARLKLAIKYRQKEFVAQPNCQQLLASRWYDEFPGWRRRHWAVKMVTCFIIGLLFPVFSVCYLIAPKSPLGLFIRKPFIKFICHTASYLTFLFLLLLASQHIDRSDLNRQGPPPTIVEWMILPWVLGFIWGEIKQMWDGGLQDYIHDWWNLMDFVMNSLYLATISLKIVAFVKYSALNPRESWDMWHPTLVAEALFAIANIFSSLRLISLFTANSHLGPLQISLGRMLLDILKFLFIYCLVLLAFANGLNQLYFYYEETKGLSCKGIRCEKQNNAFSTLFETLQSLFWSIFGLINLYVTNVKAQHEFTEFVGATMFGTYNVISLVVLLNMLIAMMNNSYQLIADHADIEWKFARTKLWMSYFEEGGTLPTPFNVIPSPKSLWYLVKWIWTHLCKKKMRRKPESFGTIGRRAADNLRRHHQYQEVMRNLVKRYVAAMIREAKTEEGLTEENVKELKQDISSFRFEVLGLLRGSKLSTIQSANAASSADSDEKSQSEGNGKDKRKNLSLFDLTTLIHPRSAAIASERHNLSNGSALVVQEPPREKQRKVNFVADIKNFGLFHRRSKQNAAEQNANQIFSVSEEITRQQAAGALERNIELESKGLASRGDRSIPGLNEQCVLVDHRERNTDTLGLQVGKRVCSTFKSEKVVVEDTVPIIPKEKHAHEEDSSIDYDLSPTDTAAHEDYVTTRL", "test": "block of DAMGO-driven TRPC4 calcium entry – cell-based, HEK293 TRPC4/mu-opioid, Fluo-4 calcium, dose response (AID 434942);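 further: potency of inhibitors blocking the TRPC4 calcium response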", "type": "functional"}, "[20]": {"test_system": "INS1", "test": "INS-1E survival protection against cytokine death – cell-based, luminescence, retest, dose response (AID 449756);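 further: cell death triggered by IL-1 beta plus TNF-alpha plus IFN-gamma mixture; protective hits raise ATP signal compared with cytokine alone wells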", "type": "functional", "settings": "Rattus norvegicus, INS1"}, "[21]": {"target": "T4, DNA repair and recombination protein RAD54-like (Homo sapiens, UniProt Q92698)", "T4 sequence (Q92698 whole entry)": "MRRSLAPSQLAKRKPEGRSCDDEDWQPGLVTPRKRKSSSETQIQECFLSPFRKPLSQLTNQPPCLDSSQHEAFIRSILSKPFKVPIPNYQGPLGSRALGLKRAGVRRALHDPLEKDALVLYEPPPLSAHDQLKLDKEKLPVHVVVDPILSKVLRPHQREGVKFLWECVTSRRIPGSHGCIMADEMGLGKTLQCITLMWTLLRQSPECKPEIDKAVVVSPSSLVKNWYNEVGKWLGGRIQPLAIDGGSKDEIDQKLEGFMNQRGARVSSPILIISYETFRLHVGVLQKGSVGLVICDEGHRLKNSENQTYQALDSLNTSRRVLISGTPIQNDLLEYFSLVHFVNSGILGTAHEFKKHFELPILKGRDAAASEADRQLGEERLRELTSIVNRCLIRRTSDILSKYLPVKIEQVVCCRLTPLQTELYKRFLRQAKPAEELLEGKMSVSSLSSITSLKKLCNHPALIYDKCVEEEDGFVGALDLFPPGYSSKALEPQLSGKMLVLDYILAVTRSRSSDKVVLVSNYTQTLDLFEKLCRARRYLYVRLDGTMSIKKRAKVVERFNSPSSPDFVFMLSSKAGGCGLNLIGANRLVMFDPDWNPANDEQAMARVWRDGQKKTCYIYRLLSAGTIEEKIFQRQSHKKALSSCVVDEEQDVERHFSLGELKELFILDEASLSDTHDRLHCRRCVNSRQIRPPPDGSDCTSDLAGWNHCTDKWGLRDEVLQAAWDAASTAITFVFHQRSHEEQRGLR", "test": "RAD54 Holliday junction migration blockers – biochemical, fluorescence, cherry-picked samples, dose series, confirmation (AID 651657)", "type": "functional"}, "[22]": {"target": "T5, DNA repair protein RAD52 homolog (Homo sapiens, UniProt P43351)", "T5 sequence (P43351 whole entry)": "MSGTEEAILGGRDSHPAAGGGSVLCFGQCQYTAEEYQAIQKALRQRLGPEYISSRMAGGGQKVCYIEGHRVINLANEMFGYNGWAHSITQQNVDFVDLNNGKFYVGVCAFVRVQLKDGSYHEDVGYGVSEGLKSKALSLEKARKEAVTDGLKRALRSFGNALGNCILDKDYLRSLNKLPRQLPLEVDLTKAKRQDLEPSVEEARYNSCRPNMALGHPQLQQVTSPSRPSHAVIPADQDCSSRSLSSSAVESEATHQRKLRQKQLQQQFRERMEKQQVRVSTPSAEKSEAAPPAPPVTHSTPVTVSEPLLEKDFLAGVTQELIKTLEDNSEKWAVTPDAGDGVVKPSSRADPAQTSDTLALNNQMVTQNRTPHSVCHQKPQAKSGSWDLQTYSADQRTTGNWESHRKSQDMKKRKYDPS", "type": "functional, biochemical"}}, "note": "Active and inactive are the calls of the source.", "data": [{"smiles": "O=C(O)/C=C/c1c2ccc(=O)c(O)c-2oc2c(O)c(O)ccc12", "values": [{"measurement": "IC50", "setting": "[1]", "value": "15.8 µM (active)"}, {"measurement": "IC50", "setting": "[2]", "value": "2.73 µM (active)"}, {"measurement": "IC50", "setting": "[3]", "value": "0.332 µM (active)"}]}, {"smiles": "Cc1ccc2cc3cc(C(=O)N4CCCCC4C)oc3nc2c1", "note": "(centres undefined)", "values": [{"measurement": "CC50", "setting": "[4]", "value": "> 50 µM (active)"}, {"measurement": "IC50", "setting": "[5]", "value": "2.28 µM (active)"}, {"measurement": "IC50", "setting": "[6]", "value": "4.44 µM (active)"}, {"measurement": "AC50", "setting": "[7]", "value": "inconclusive"}, {"measurement": "IC50", "setting": "[8]", "value": "21.4 µM (active)"}]}, {"smiles": "Cc1ccc(C(=O)Nc2ccccc2SCC2CSc3nc4ccccc4c(=O)n32)cc1", "note": "(centres undefined)", "values": [{"measurement": "CC50", "setting": "[4]", "value": "27.7 µM (active)"}, {"measurement": "IC50", "setting": "[9]", "value": "10.4 µM (active)"}, {"measurement": "IC50", "setting": "[8]", "value": "11.4 µM (active)"}]}, {"smiles": "Oc1ccc(Nc2nc(N3CCCC3)c3ccccc3n2)cc1", "values": [{"measurement": "EC50", "setting": "[10]", "value": "> 120 µM (not active)"}, {"measurement": "EC50", "setting": "[11]", "value": "12.9 µM (active)"}, {"measurement": "IC50", "setting": "[12]", "value": "43.9 µM (active)"}, {"measurement": "EC50", "setting": "[13]", "value": "< 0.2 µM (active)"}, {"measurement": "EC50", "setting": "[14]", "value": "> 120 µM (not active)"}, {"measurement": "IC50", "setting": "[15]", "value": "4.72 µM (active)"}, {"measurement": "EC50", "setting": "[16]", "value": "2.11 µM (active)"}, {"measurement": "EC50", "setting": "[17]", "value": "25.7 µM (active)"}, {"measurement": "EC50", "setting": "[18]", "value": "9.1 µM (active)"}, {"measurement": "EC50", "setting": "[19]", "value": "5.96 µM (active)"}, {"measurement": "AC50", "setting": "[20]", "value": "7.85 µM (active)"}, {"measurement": "AC50", "setting": "[21]", "value": "6.91 µM (active)"}, {"measurement": "AC50", "setting": "[22]", "value": "13.3 µM (active)"}]}]}
